Assay results from US20160168140A1, “HETEROCYCLIC COMPOUNDS AS ANTIBIOTIC POTENTIATORS” (priority 2014, published 2016).

Assays:
E. coli = experiment: MIC shift assay of antibiotics (broth microdilution); assay type: cell-based; conditions: E. coli (SCR1); compound concentration 10 μM; MIC of colistin alone 0.5-1.0 μg/mL
Experimental: Minimum inhibitory concentration (MIC) shift assays were performed to determine if the test compounds could alter the MIC of existing antibacterial drugs (e.g., ciprofloxacin and colistin) for E. coli, Acinetobacter baumannii, Klebsiella pneumoniae, Pseudomonas aeruginosa, and Enterobacter cloacae. The MIC shift assay is based on the standard broth microdilution MIC determination protocol of Wiegand et al, Nat Protoc. 3(2):163-75 (2008), with slight modifications that allow for the screening of up to seven test compounds in a single plate.
On the day before an assay, bacteria were grown overnight in cation-adjusted Mueller Hinton broth (CAMHB; Teknova, Hollister, Calif.) at 37° C. in an orbital shaker and sub-cultured at a 1:200 dilution the following morning. The cells were grown to OD600=0.5 to 0.8 and then diluted to OD600=0.01. From a serial dilution of each antibiotic at (50 μL of 2× concentrated stock solutions) several concentrations were added to the wells of a sterile, transparent round-bottom 96-well plate (Phenix Research Products, Candler, N.C.), and diluted cells (50 μL) were added to the plates for a starting OD600 of 0.005. Then, a test compound (2.5 μL) was added to each well to give a final concentration of 4 or 10 μM. A row of wells lacking test compound but containing the antibiotic was used to determine the MIC of that antibiotic alone. A column of wells lacking both antibiotic and test compound served as a growth control, and an additional column containing only CAMHB was included as a sterile blank control.
The plates were incubated for 18 to 20 h at 37° C. in an orbital shaker, and the cell density (OD600) was determined the following day in a microplate reader (PolarStar Optima, BMG Labtech). The MIC shift was determined by comparing the MIC of the antibiotic alone to the MIC of the antibiotic plus test compound.

E. coli RecA = biological target: T1, E. coli RecA (Escherichia coli, UniProt P0A7G6); experiment: RecA ssDNA-dependent ATPase assay (coupled enzyme, amplex red fluorescence); assay type: biochemical; conditions: read-out: RecA Inhibition IC50
T1 construct: purchased New England BioLabs
Experimental: A coupled enzyme ATPase assay, similar to that described in Wigle and Singleton, BioorgMed Chem Lett. 17(12):3249-53 (2007), was used to screen compounds for in vitro activity against RecA. A solution of the compound to be tested dissolved in DMSO (5 μL of 20× concentrated stock) was added to 90 μL of a master mix containing the following components at their final concentrations in the appropriate wells of flat-bottomed black 96-well plates (Corning Life Sciences, Corning N.Y.) at 37° C.: 0.5 μM E. coli RecA (New England BioLabs), 10 mM Mg(OAc)2 (Sigma, St. Louis, Mo.), 500 μM ATP (Sigma), 250 μM phosphoenolpyruvate (Sigma), 100 μM amplex red (Invitrogen, Carlsbad, Calif.), 1 U/mL pyruvate kinase (Sigma), 1 U/mL pyruvate oxidase (Thermo Fisher Scientific, Waltham, Mass.), 1 U/mL horseradish peroxidase (Sigma), and 20 mM Tris*HOAc, pH 7.5 (Boston BioProducts, Ashland, Mass.). The total volume of the assay solution was 100 μL. […]
The fluorescence emission at 595 nm (excitation at 485 nm) was then recorded using a microplate reader (PolarStar Optima, BMG Labtech, Ortenberg, Germany) for approximately 25 min to establish the baseline fluorescence.
To initiate the reactions, poly(dT) (5 μL of a 100 μM-nts stock solution) was added to each well to give a final DNA concentration of 5 μM-nts. Fluorescence emission was recorded for an additional 90 min. […]

[1] = test system: SOS response (sulAp-lacZ reporter) in E. coli strain DM4000; experiment: Ciprofloxacin-induced SOS reporter gene expression assay (sulAp-lacZ, Beta-Glo luminescence, with or without PMBN); assay type: cell-based; conditions: Escherichia coli; in the presence of PMBN (4 μg/mL); read-out: SOS Attenuation EC50
Description: An SOS reporter gene assay was used to assess the ability of the RecA inhibitor compounds to block the SOS response to ciprofloxacin. Details of the testing methodology are provided in, for example, Sandler et al., Genetics 143(1):5-13 (1996) and McCool et al., Mol Microbiol. 53(5):1343-57 (2004). The SOS genes are regulated by the transcriptional repressor LexA and the DNA-binding protein RecA. When DNA damage occurs, RecA binds to ssDNA, and this protein-DNA complex then induces the autocleavage of LexA, resulting in the depression of LexA-bound promoters. […] Therefore, a reporter construct wherein the sulA promoter (sulAp) is fused to the lacZ gene can be used to measure the level of the SOS response in cells using an assay for β-galactosidase activity.
E. coli strain DM4000 contains the sulAp-lacZ reporter gene inserted at the X attachment site. Two additional strains containing the same sulAp-lacZ reporter gene were used as RecA-independent controls in this assay. JC19098 encodes an un-cleaveable LexA repressor; therefore, the sulA promoter-dependent β-galactosidase expression is always off. […]
Luminescence was measured on a plate reader with the gain adjustment set to 40% of the maximum on a well with one of the highest luminescence values on the plate (e.g., a well containing ciprofloxacin without inhibitor). […]

[2] = test system: Acinetobacter baumannii (Ab23); experiment: MIC shift assay of antibiotics (broth microdilution); assay type: cell-based; conditions: Acinetobacter baumannii (Ab23); compound concentration 10 μM; MIC of colistin alone >8.0 μg/mL
In short: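 Following a modified Wiegand broth microdilution protocol, colistin serial dilutions with or without test compound were set up in round-bottom 96-well plates and inoculated with A. baumannii cells to a starting OD600 of 0.005. Plates were shaken at 37° C. for 18 to 20 h and read at OD600. The fold shift was calculated from colistin MIC alone versus colistin MIC with test compound, with growth and medium-only blank controls.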

T1 sequence (P0A7G6 2-353): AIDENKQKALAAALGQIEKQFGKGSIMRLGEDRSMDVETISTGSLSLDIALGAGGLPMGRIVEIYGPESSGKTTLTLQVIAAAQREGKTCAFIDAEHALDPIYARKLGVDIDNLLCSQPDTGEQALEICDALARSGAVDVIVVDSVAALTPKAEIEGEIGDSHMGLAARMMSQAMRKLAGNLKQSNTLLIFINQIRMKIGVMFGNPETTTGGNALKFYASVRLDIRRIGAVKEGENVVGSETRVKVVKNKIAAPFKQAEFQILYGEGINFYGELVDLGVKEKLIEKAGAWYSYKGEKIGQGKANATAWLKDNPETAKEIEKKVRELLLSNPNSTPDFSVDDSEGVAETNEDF

Structure (SMILES)	Colistin MIC Shift (E. coli)	IC50 (E. coli RecA) [µM]	EC50 [1] [µM]	Colistin MIC Shift [2] [X]
CN(C)CCCNc1nc(/C=C/c2ccc(Cl)c(Cl)c2)nc2c(C(F)(F)F)cccc12 [MLJ-02-070A]	16-32X	12	< 6	>128
Clc1ccc(/C=C/c2c[nH]c3ccc(Br)cc23)cc1Cl [MLJ-02-086B]	8-16X	15	8	>64
